# According to US5440031A, “1,4,10,13-tetraoxa-7,16-diazacyclooctadecane derivatives, pharmaceutical compositions containing them and their use for the removal of toxic metal ions and radioactive isotopes from living organism” (priority 1990, dated 1995):
# Entries after “also recorded” stand apart in the source; their conditions may differ.
# Experiments:
# [1] = literature; cited from earlier work
# [2] = decorporation investigations by various routes, whole-body activity and deposition in bones; assay type: in vivo, Swiss mice and Wistar rats; details: decorporating effect; disodium salt
# Source text: (§1) The action of the compounds of formula (I) according to the invention, which manifests itself as an increase in the elimination of metal ions damaging the living organism, was investigated by using radioactive strontium or cerium ions on Swiss mice and Wistar rats of both sexes.
# (§2) The elimination was studied on radioactive isotopes introduced in various routes to various sites, e.g. to the blood circulation, abdominal cavity, lungs, muscles or subcutaneous connective tissue of the experimental animals. The compound increasing the elimination of the isotopes was administered daily once or two times in the form of an injection, powder or liquid aerosol or plaster to the organism of the experimental animals. Thereafter, whole body activity measurements were performed and retention curves were taken up which then were compared to the results obtained in the control group.
# The retention curves obtained were analysed on a computer. "Nonlinear Regression by the Code of BMDP-3R" (BMDP Statistical Software Manual, UCLA, Los Angeles, 1990, Chief Ed. W. J. Dixon) computer software was used for this purpose. It could be stated from the results obtained that the curves could be described by a two-component descending exponential function. Two data were calculated for characterizing the effectivity. […]
# laboratory mice and rats = experiment: acute toxicity, LD50/30, injection into blood circulation, 30 days observation; assay type: in vivo, Swiss mice and Wistar rats
# Method: The acute toxicity values of the products prepared according to Examples 1 to 16 were determined on laboratory mice and rats in the following manner.
# Solutions containing the compounds in various concentrations were prepared by using physiological saline solution or glucose solution of 5% by weight concentration and the active agents were administered in various concentrations into the blood circulation of the animals by injecting them slowly during 3 to 5 minutes. Groups consisting of 6 to 10 animals (Swiss mice and Wistar rats of both sexes) each were used for the various dose levels. […] The LD50/30 value (i.e. the dose causing the death of 50% of the experimental animals within 30 days) was determined from the number of animals died during this period by using probit analysis/D. J. Finney: Probit Analysis (2nd ed.) Cambridge University Press (1952)/. These values expressed in mmol/kg of body-weight for the active agents according to the invention are summarized in column (B) of Table 1.
# [3] = elimination of radioactive strontium introduced through the trachea into the lungs, whole-body retention (FIG. 2); assay type: in vivo, Wistar rats
# Source text: FIGS. 2 & 3 show the percentages of metal ions retained in the body, plotted over 32 days after treatment with compound "b)" of example 6 at both full and double strength, referenced against an untreated control.
# a) The whole-body retention curves illustrated in FIG. 2 show the elimination of radioactive strontium introduced through the trachea into the lungs of Wistar rats after intraperitoneal (i.p.) administration of the compound described in Example 6 b). It can be seen from the pattern of the upper curve of FIG. 2 that the radioactive strontium was eliminated to a low grade from the organism of control animals treated only with the solvent. Not more than 30 to 35% of the starting activity were eliminated in the days following the inner contamination. […] The rapid elimination of the isotope was continued in the days following the treatment, and reached 88 to 90% in the once-treated group and 94 to 96% in the twice-treated group. […] The residual activity of 5 to 10% measured as whole-body retention was found in the soft parts and liver of the animals whereas the major part (65 to 70%) of the retention found in the controls were built in to the bones. Similarly advantageous results were obtained by administering the compounds according to the invention in an intravenous route or into the subcutaneous connective tissue.
# [4] = radioactive isotope elimination-increasing effect, isotope into abdominal cavity, whole-body retention; assay type: in vivo, Swiss mice
# Source text: as §1, §2
# The retention curves obtained were analysed on a computer. "Nonlinear Regression by the Code of BMDP-3R" (BMDP Statistical Software Manual, UCLA, Los Angeles, 1990, Chief Ed. W. J. Dixon) computer software was used for this purpose. It could be stated from the results obtained that the curves could be described by a two-component descending exponential function. Two data were calculated for characterizing the effectivity. One of these was the so-called F factor indicating the increase in the elimination in relation to the control and meaning the multiplication of the isotope elimination under effect of the test compound in relation to the untreated animals/see column (C) in Table 1/.
# For the illustrative comparison of the compounds according to the invention additional characteristic data, the so-called EI values are given which were obtained by multiplying the extent of isotope elimination as percentage related to the control group (effectivity, E) with the acute toxicity value (LD50/30, innocuous, I)/see column (D) in Table 1/. Although the EI value is numerically not identical to the therapeutic ratio (safety index), it indicates in all cases to a weak or excellent activity of a product.
# The radioactive isotope elimination-increasing effects of compounds prepared according to Examples 1 to 16 were compared on Swiss mice as described hereinafter.
# An activity of 37 to 74 kBg (1 to 2 μCi) of radioactive strontium (Sr-85Cl2) or radioactive cerium (Ce-144Cl3), respectively, was administered into the abdominal cavity of the animals which were then divided into treatment groups consisting of 5 to 10 animals each. At 30 to 60 minutes after administration of the isotope, the animals of the treated groups were intravenously (i.v.) given the active agent used in an amount to achieve s concentration of 50 to 100 μmol/kg of body-weight in the animal organism for each treatment. The animals of the control groups were similarly treated with the carrier (sterile physiological saline or glucose solution of 5% by weight concentration) without active agent.
# The amount of radioactivity introduced to the animal organism was determined immediately after administration of the isotope, thru these measurements were repeated daily or in every two the or three days in a device constructed for the purpose of the whole-body measurements on small animals. The counts observed were related to the starting activity value of the zero (0) day and a so-called retention/time correlation was obtained by considering the activity retained in the organism. The change of activity of the animal organism in the time is illustrated in FIG. 1 where the time (in days) elapsed after the treatment is shown on the abscissa and the whole-body retention as percentage is plotted on the ordinate. It can be seen that the rate of elimination of Sr-85 administered into the abdominal cavity of control animals was slow: within 1 day only 15%, within 4 days 25% and within 7 days 30% of the activity were eliminated from their organism and the elimination was even more delayed in the later period. […]
compound,measurement,setting,value
O=C(O)CN(CCN(CC(=O)O)CC(=O)O)CCN(CC(=O)O)CC(=O)O [diethylenetriaminepentaacetic acid],stability of calcium complexes versus strontium complexes,[1],substantially more stable than their strontium complexes
"O=C([O-])C(C(=O)[O-])N1CCOCCOCCN(C(C(=O)[O-])C(=O)[O-])CCOCCOCC1.[Ca+2].[Na+].[Na+] [N,N'-bis(dicarboxymethyl)-1,4,10,13-tetraoxa-7,16-diazacyclooctadecane calcium complex disodium salt]",effectivity (in words),[2],particularly outstanding effect; also recorded: high decorporating effectivity
same,toxicity (in words),laboratory mice and rats; in vivo,low toxicity
O=C(O)CN(CCN(CC(=O)O)CC(=O)O)CC(=O)O [ethylenediaminetetraacetic acid],stability of calcium complexes versus strontium complexes,[1],substantially more stable than their strontium complexes
"N,N'-bis(dicarboxymethyl)-1,4,10,13-tetraoxa-7,16-diazacyclooctadecane calcium complex disodium salt containing disodium hydroxymalonate and sodium chloride [6/b]",radioactive strontium in the bones,"[3]; animals killed at the end of the experiment, controls 65 to 70% of retention built in to the bones",hardly any or no radioactive strontium could be detected
same,"whole-body load within 1 day following the treatment, treated once","[3]; i.p., once with 50 μmol/kg, control 90%",20%
same,"whole-body load within 1 day following the treatment, treated twice","[3]; i.p., twice in 3-hour interval, control 90%",20%
same,EI value,"[4]; effectivity (isotope elimination as % related to control) multiplied by LD50/30, 0-5 weak, 5-50 medium, 50-100 good, above 100 excellent",160.00
same,F factor,"[4]; multiplication of isotope elimination relative to untreated animals, i.v. 50 to 100 μmol/kg, 30 to 60 minutes after isotope",4.2
same,Acute toxicity LD50/30,"laboratory mice and rats; dose causing death of 50% of animals within 30 days, slow injection into the blood circulation during 3 to 5 minutes, mice and rats, probit analysis",above 3.0 mmol/kg
